From patent US20230293529A1, “DOSING REGIMENS FOR N-((5-FLUORO-2,3-DIHYDROBENZOFURAN-4-YL)METHYL)-8-(2-METHYLPYRIDIN-3-YL)-[1,2,4]TRIAZOLO[4,3-C]PYRIMIDIN-5-AMINE, OR A PHARMACEUTICALLY ACCEPTABLE SALT THEREOF, FOR USE IN TREATING PRC2-MEDIATED DISEASES OR DISORDERS” (Novartis AG, priority 2020, published 2023) come the findings set out here.

In data set [1] the test system is advanced malignancies (DLBCL, nasopharyngeal carcinoma, other advanced solid tumors). The data set is described as follows: Antitumor activity, overall response rate (ORR) in subjects with advanced malignancies. It counts as in vivo, human. The settings on record: local assessment per Cheson 2014, RECIST v1.1 and PCWG2. The source says: (§1) This study is a multicenter, open label, study to establish the maximum tolerated dose (MTD) and/or recommended phase 2 dose (RP2D) and to evaluate the safety, antitumor activity and pharmacokinetic (PK) profile of MAK683 (Compound (1) of MAK683 (Compound (1) in subjects with advanced malignancies such as Diffuse Large B cell Lymphoma (DLBCL), nasopharyngeal carcinoma (NPC) or other advanced solid tumors for whom no further effective standard treatment is available. The patients will be administered MAK683 single agent orally until they experience unacceptable toxicity, progressive disease and/or treatment discontinuation at the discretion of the investigator or patient or withdrawal of consent. The phase I part plans to enroll patients with relapsed/refractory DLBCL, advanced/ metastatic nasopharyngeal carcinoma with presence of p16/CDKN2A gene and other solid tumors including castration-resistant prostate cancer, gastric cancer, OCCC, sarcoma. All patients enrolled in this part of the study will receive escalating oral doses of MAK683 in fasted condition, unless significant GI toxicity is observed, in which case dosing with moderate-fat meals may be assessed. The starting dose and regimen for the MAK683 first-in-man clinical study is about 10 mg QD. […]

Data set [2] deals with H3K27me3. The experiment in a line: Pharmacodynamic activity: change in H3K27me3 in peripheral blood monocytes by flow cytometry. It counts as in vivo, human. The procedure: (§2) MAK683 was administered fasted once (QD) or twice daily (BID) on a continuous schedule in 28-day treatment cycles. The pharmacokinetic (PK) profile of MAK683 was assessed in sequential blood samples on Days 1, 8 and/or 15 of Cycles 1-6. MAK683 pharmacodynamic activity in Cycle 1, measured by change in H3K27me3, was evaluated in peripheral blood monocytes on Days 1, 8, and 15 by flow cytometry and in tumor biopsies at baseline and Day 15 by H-score.
(A flow cytometer gives signals particle by particle.)

A short description of data set [3]: Safety, adverse events in Phase I/II study. It counts as in vivo. The settings on record: patients with advanced malignancies, oral MAK683.
From the text: as §1

Data set [4] concerns H3K27me3. The data set is described as follows: Pharmacodynamic activity: H3K27me3 in tumor biopsies by H-score. It counts as in vivo, human. The settings on record: paired baseline-Day 15 tumor biopsies; diffuse large B-cell lymphoma (n=4) or sarcoma (n=6). How it is done:
as §2

Data set [5] is described as follows: Pharmacokinetic profile of MAK683 in sequential blood samples, Phase I/II study. It counts as in vivo, human.
From the text: This study is a multicenter, open label, study to establish the maximum tolerated dose (MTD) and/or recommended phase 2 dose (RP2D) and to evaluate the safety, antitumor activity and pharmacokinetic (PK) profile of MAK683 (Compound (1) of MAK683 (Compound (1) in subjects with advanced malignancies such as Diffuse Large B cell Lymphoma (DLBCL), nasopharyngeal carcinoma (NPC) or other advanced solid tumors for whom no further effective standard treatment is available. The patients will be administered MAK683 single agent orally until they experience unacceptable toxicity, progressive disease and/or treatment discontinuation at the discretion of the investigator or patient or withdrawal of consent. The phase I part plans to enroll patients with relapsed/refractory DLBCL, advanced/ metastatic nasopharyngeal carcinoma with presence of p16/CDKN2A gene and other solid tumors including castration-resistant prostate cancer, gastric cancer, OCCC, sarcoma. All patients enrolled in this part of the study will receive escalating oral doses of MAK683 in fasted condition, unless significant GI toxicity is observed, in which case dosing with moderate-fat meals may be assessed. The starting dose and regimen for the MAK683 first-in-man clinical study is about 10 mg QD. Escalation will continue to about 20 mg, about 40 mg, about 80 mg, about 120 mg, about […], about […], about 240 mg, about 300 mg, about 500 mg or about 800 mg or until the MTD is reached or a RP2D is established based on emerging data.
as §2

As to `Cc1ncccc1-c1cnc(NCc2c(F)ccc3c2CCO3)n2cnnc12` [MAK683, N-((5-fluoro-2,3-dihydrobenzofuran-4-yl)methyl)-8-(2-methylpyridin-3-yl)-[1,2,4]triazolo[4,3-c]pyrimidin-5-amine], the “positive endpoint: improved overall response rate (ORR)” value in data set [1] is listed as “met at least one of the above endpoints”. Besides, the “H3K27me3/H3 ratio change from baseline in peripheral monocytes” value in data set [2] (Cycle 1, Days 1, 8, 15, across doses) is recorded as “substantial on-treatment reductions from baseline”. In addition, in data set [2] (peripheral monocytes), the “Maximum percentage reduction of H3K27me3/H3 ratio, relation to exposure” value is “proportional to cumulative MAK683 AUC”. Also, in data set [3], the adverse events entry is “mild to moderate and did not lead to discontinuation”. Further, the “patients with H3K27me3 H-score reductions from baseline >40” value in data set [4] is 7/10. Also, the “PK exposure (Cmax and AUC) dose proportionality” value in data set [5] (800 mg QD) is “over-proportional”; in data set [5] (10-500 mg QD and 60-450 mg BID) it was “variable and broadly dose-proportional”. Moreover, the “accumulation after multiple doses (Racc)” value in data set [5] (after multiple doses) is 0.8-2.3. Besides, in data set [5] (human, blood, oral, across cohorts, unchanged after multiple doses, read-out: Apparent terminal half-life (geometric mean)), the half-life fell in the range of 2.5 to 5.2 h. For the same compound, the Tmax in data set [5] (human, blood, patients, oral, fasted, 10-800 mg QD or 60-450 mg BID, read-out: median Tmax) is ~1 h. In addition, in data set [5] (patients, QD or BID continuous dosing), the Time to steady-state is listed as ~3 days.

The term half-life denotes how long it takes for the measured level to halve. Broadly, the Tmax is the time from dosing to the highest level.
